Experimental data: patent US8088775B2, “Pharmaceutical composition for treating hair loss” (priority 2004, dated 2012)
Several values for one entry are separate records, joined by “and”; a condition that tells them apart may be missing. Equal values may be shown once. Where a name gives a salt, the structure may show the parent alone. Read-outs that look alike come from different tables or passages of the source.

Columns and labels:
[1] = system: prostate glands of castrated male SD rats; assay: Anti-androgenic active effects in castrated male SD rats: weight of prostate glands after TP or DHTP inducement; assay type: in vivo; conditions: for Weight of prostate glands after inducement with DHTP / Size of prostate glands enlarged by inducement with TP: one week oral
Protocol: In-Vivo Experiment for the Observation of Anti-Androgenic Active Effects of Castrated Male SD Rats (1)
Each compound is administered orally continuously for one week according to the method of administration shown in Table 1, prostate glands are removed from the rats in each group while watching, and their weights are measured.

hairs = conditions: Example 6; tablets 10 mg once a day for six months; FIG. 5A/5B
Text: Clinical Experiments to Study Effects of Epilation
The effects of epilation are investigated by administering the tablets thus manufactured once a day.

hair loss [2] = system: hair loss
Text: Clinical Experiment to Study Effects for the Prevention of Hair Loss, and for Hair Toning and Hair Growth (2)
The effect for the prevention of hair loss is investigated by administering the tablets thus manufactured to 20 healthy adult males who are older than 20 years old and selected to be specimens (including 5 males in the placaebo control group) once a day.

hair loss [3] = conditions: for Degree of efficacy: 10-20% (number of persons) / Degree of efficacy: 20-40% (number of persons) / Degree of efficacy: 40-60% (number of persons) / Degree of efficacy: 60-80% (number of persons) / Degree of efficacy: Greater than 90% (number of persons) / Degree of efficacy: No effect (number of persons) / Time taken for the efficacy to be shown: 3-5 days (number of persons) / Time taken for the efficacy to be shown: 7 days (number of persons) / Time taken for the efficacy to be shown: 14 days (number of persons) / Time taken for the efficacy to be shown: 21 days (number of persons) / Time taken for the efficacy to be shown: 28 days (number of persons) / Time taken for the efficacy to be shown: Minor effect (number of persons): Example 5 tertiary specimens, tablets three times a day (30 mg=3×10 mg)
Protocol: Clinical Experiment to Study Effects for the Prevention of Hair Loss, and for Hair Toning and Hair Growth (3)
The effects for the prevention of hair loss are investigated by administering the tablets thus manufactured to 5 healthy adult males who are older than 20 years old and selected to be specimens three times a day (30 mg=3×10 mg).

[4] = system: prostate glands of normal male SD rats; assay: Anti-androgenic effects in normal male SD rats: weight of prostate glands after 2 weeks; assay type: in vivo; conditions: oral; for Average weight of prostate glands: normal 8-week-old male SD rats, solvent control 333.8; for Weight of prostate glands versus solvent control group: normal male SD rats
Text: In-Vivo Experiment for the Observation of Anti-Androgenic Effects of Normal Male SD Rats (2)
After the experiments are completed, the changes in the weight of prostate glands removed from normal SD rats and the changes in the weight of normal SD rats measured are shown in Tables 4 and 5 and diagrammatized in FIGS. 3 and 4.

hair loss [5] = conditions: for Degree of efficacy: 10-20% (number of persons) / Degree of efficacy: 20-40% (number of persons) / Degree of efficacy: 40-60% (number of persons) / Degree of efficacy: 60-80% (number of persons) / Degree of efficacy: Greater than 90% (number of persons) / Degree of efficacy: No effect (number of persons) / Time taken for the efficacy to be shown: 3-5 days (number of persons) / Time taken for the efficacy to be shown: 7 days (number of persons) / Time taken for the efficacy to be shown: 14 days (number of persons) / Time taken for the efficacy to be shown: 21 days (number of persons) / Time taken for the efficacy to be shown: 28 days (number of persons) / Time taken for the efficacy to be shown: Minor effect (number of persons): Example 3 primary specimens, extruded material, 10 mg effective component once a day
Text: Clinical Experiment to Study Effects for the Prevention of Hair Loss, and for Hair Toning and Hair Growth (1)
The extruded material thus obtained is dried in the floating air layer. The therapeutical efficacy for the prevention of hair loss is experimented clinically by using thus obtained extruded material as shown in Tables 6 and 7. The objects of clinical experiments are selected based on 35 male and female healthy adults older than 20 years old who suffer from symptoms of hair loss. The therapeutical efficacy of female hair loss is also tested as females suffering from hair loss are included in the specimen population (including 5 males in the placebo control group).

[6] = Example 4 secondary specimens, Total, tablets, 10 mg effective component once a day
[7] = Example 3, 10 mg once a day, no effects with placebo

SMILES: CCC(=O)O[C@H]1CC[C@H]2[C@@H]3CCC4=CC(=O)CC[C@]4(C)[C@H]3CC[C@]12C [TP, testosterone propionate]
- Average weight of prostate glands, prostatic hyperplasia inducement group ([1]; hormone alone hypodermic (TP 10 μg or DHTP 20 μg) + vehicle oral, one week, solvent control 23.3±1.5 mg): 63.6 ± 3.2 mg and 63.6 mg

SMILES: O=C(O)COCCN1CCN(C(c2ccccc2)c2ccc(Cl)cc2)CC1 (centres unmarked) [composition of the present invention, 2-[2-[4-[(4-chlorophenyl)phenylmethyl]-1-piperazinyl]ethoxy]-acetic acid dihydrochloride]
- Effects of epilation (photograph, naked eyes) (hairs): considerable effects of epilation
- Color and thickness of newly coming out hairs (hair loss [2]; Example 4, tablets 10 mg once a day): much stronger than those of old hairs
- Effects for the prevention of hair loss (hair loss [2]; Example 4, tablets 10 mg once a day, 15 people, no effects with placebo): superior within three weeks in all of 15 people
- Degree of efficacy: 10-20% (number of persons) (hair loss [2]; [6]): 0
- Degree of efficacy: 20-40% (number of persons) (hair loss [2]; [6]): 0
- Degree of efficacy: 40-60% (number of persons) (hair loss [2]; [6]): 5
- Degree of efficacy: 60-80% (number of persons) (hair loss [2]; [6]): 9
- Degree of efficacy: Greater than 90% (number of persons) (hair loss [2]; [6]): 1
- Degree of efficacy: No effect (number of persons) (hair loss [2]; [6]): 0
- Time taken for the efficacy to be shown: 3-5 days (number of persons) (hair loss [2]; [6]): 0
- Time taken for the efficacy to be shown: 7 days (number of persons) (hair loss [2]; [6]): 1
- Time taken for the efficacy to be shown: 14 days (number of persons) (hair loss [2]; [6]): 6
- Time taken for the efficacy to be shown: 21 days (number of persons) (hair loss [2]; [6]): 8
- Time taken for the efficacy to be shown: 28 days (number of persons) (hair loss [2]; [6]): 0
- Time taken for the efficacy to be shown: Minor effect (number of persons) (hair loss [2]; [6]): 0
- Color and thickness of newly produced hairs (hair loss [3]; Example 5, tablets 30 mg a day): much stronger than those of old hairs
- Effects for the prevention of hair loss (hair loss [3]; Example 5, tablets 30 mg a day, 5 people): superior within one week in all of 5 people
- Degree of efficacy: 10-20% (number of persons) (hair loss [3]; Male (5)): 0
- Degree of efficacy: 20-40% (number of persons) (hair loss [3]; Male (5)): 0
- Degree of efficacy: 40-60% (number of persons) (hair loss [3]; Male (5)): 0
- Degree of efficacy: 60-80% (number of persons) (hair loss [3]; Male (5)): 2
- Degree of efficacy: Greater than 90% (number of persons) (hair loss [3]; Male (5)): 3
- Degree of efficacy: No effect (number of persons) (hair loss [3]; Male (5)): 0
- Time taken for the efficacy to be shown: 3-5 days (number of persons) (hair loss [3]; Male (5)): 0
- Time taken for the efficacy to be shown: 7 days (number of persons) (hair loss [3]; Male (5)): 5
- Time taken for the efficacy to be shown: 14 days (number of persons) (hair loss [3]; Male (5)): 0
- Time taken for the efficacy to be shown: 21 days (number of persons) (hair loss [3]; Male (5)): 0
- Time taken for the efficacy to be shown: 28 days (number of persons) (hair loss [3]; Male (5)): 0
- Time taken for the efficacy to be shown: Minor effect (number of persons) (hair loss [3]; Male (5)): 0
- Degree of efficacy: 10-20% (number of persons) (hair loss [3]; Total (5)): 0
- Degree of efficacy: 20-40% (number of persons) (hair loss [3]; Total (5)): 0
- Degree of efficacy: 40-60% (number of persons) (hair loss [3]; Total (5)): 0
- Degree of efficacy: 60-80% (number of persons) (hair loss [3]; Total (5)): 2
- Degree of efficacy: Greater than 90% (number of persons) (hair loss [3]; Total (5)): 3
- Degree of efficacy: No effect (number of persons) (hair loss [3]; Total (5)): 0
- Time taken for the efficacy to be shown: 3-5 days (number of persons) (hair loss [3]; Total (5)): 0
- Time taken for the efficacy to be shown: 7 days (number of persons) (hair loss [3]; Total (5)): 5
- Time taken for the efficacy to be shown: 14 days (number of persons) (hair loss [3]; Total (5)): 0
- Time taken for the efficacy to be shown: 21 days (number of persons) (hair loss [3]; Total (5)): 0
- Time taken for the efficacy to be shown: 28 days (number of persons) (hair loss [3]; Total (5)): 0
- Time taken for the efficacy to be shown: Minor effect (number of persons) (hair loss [3]; Total (5)): 0
- Average weight of prostate glands [4]: 226.7 mg
- Weight of prostate glands versus solvent control group [4]: significantly lower
- Average weight of prostate glands ([1]; DHTP 20 μg hypodermic + drug oral daily (finasteride 0.5 mg, composition 5 mg), one week, solvent control 23.3±1.5 mg, dihydrochloride): 52.2 ± 1.1 mg and 52.2 mg
- Weight of prostate glands after inducement with DHTP [1]: not greatly affected
- Average weight of prostate glands ([1]; TP 10 μg hypodermic + drug oral daily (finasteride 0.5 mg, composition 5 mg), one week, solvent control 23.3±1.5 mg, dihydrochloride): 25.1 mg
- Size of prostate glands enlarged by inducement with TP [1]: reduced to the normal size
- Effect of prevention of hair loss, time course (hair loss [5]; [7]): hair loss is prevented in almost all specimens in about three weeks
- Effects of the prevention of hair loss in males and females (hair loss [5]; [7]): remarkable effects of the prevention of hair loss are observed both in males and females
- Degree of efficacy: 10-20% (number of persons) (hair loss [5]; Female (10)): 0
- Degree of efficacy: 20-40% (number of persons) (hair loss [5]; Female (10)): 0
- Degree of efficacy: 40-60% (number of persons) (hair loss [5]; Female (10)): 3
- Degree of efficacy: 60-80% (number of persons) (hair loss [5]; Female (10)): 6
- Degree of efficacy: Greater than 90% (number of persons) (hair loss [5]; Female (10)): 0
- Degree of efficacy: No effect (number of persons) (hair loss [5]; Female (10)): 1
- Time taken for the efficacy to be shown: 3-5 days (number of persons) (hair loss [5]; Female (10)): 0
- Time taken for the efficacy to be shown: 7 days (number of persons) (hair loss [5]; Female (10)): 1
- Time taken for the efficacy to be shown: 14 days (number of persons) (hair loss [5]; Female (10)): 6
- Time taken for the efficacy to be shown: 21 days (number of persons) (hair loss [5]; Female (10)): 2
- Time taken for the efficacy to be shown: 28 days (number of persons) (hair loss [5]; Female (10)): 0
- Time taken for the efficacy to be shown: Minor effect (number of persons) (hair loss [5]; Female (10)): 1
- Degree of efficacy: 10-20% (number of persons) (hair loss [5]; Male (20)): 0
- Degree of efficacy: 20-40% (number of persons) (hair loss [5]; Male (20)): 0
- Degree of efficacy: 40-60% (number of persons) (hair loss [5]; Male (20)): 6
- Degree of efficacy: 60-80% (number of persons) (hair loss [5]; Male (20)): 13
- Degree of efficacy: Greater than 90% (number of persons) (hair loss [5]; Male (20)): 1
- Degree of efficacy: No effect (number of persons) (hair loss [5]; Male (20)): 0
- Time taken for the efficacy to be shown: 3-5 days (number of persons) (hair loss [5]; Male (20)): 0
- Time taken for the efficacy to be shown: 7 days (number of persons) (hair loss [5]; Male (20)): 6
- Time taken for the efficacy to be shown: 14 days (number of persons) (hair loss [5]; Male (20)): 11
- Time taken for the efficacy to be shown: 21 days (number of persons) (hair loss [5]; Male (20)): 3
- Time taken for the efficacy to be shown: 28 days (number of persons) (hair loss [5]; Male (20)): 0
- Time taken for the efficacy to be shown: Minor effect (number of persons) (hair loss [5]; Male (20)): 0
- Degree of efficacy: 10-20% (number of persons) (hair loss [5]; Total): 0
- Degree of efficacy: 20-40% (number of persons) (hair loss [5]; Total): 0
- Degree of efficacy: 40-60% (number of persons) (hair loss [5]; Total): 9
- Degree of efficacy: 60-80% (number of persons) (hair loss [5]; Total): 19
- Degree of efficacy: Greater than 90% (number of persons) (hair loss [5]; Total): 1
- Degree of efficacy: No effect (number of persons) (hair loss [5]; Total): 1
- Time taken for the efficacy to be shown: 3-5 days (number of persons) (hair loss [5]; Total): 0
- Time taken for the efficacy to be shown: 7 days (number of persons) (hair loss [5]; Total): 7
- Time taken for the efficacy to be shown: 14 days (number of persons) (hair loss [5]; Total): 17
- Time taken for the efficacy to be shown: 21 days (number of persons) (hair loss [5]; Total): 5
- Time taken for the efficacy to be shown: 28 days (number of persons) (hair loss [5]; Total): 0
- Time taken for the efficacy to be shown: Minor effect (number of persons) (hair loss [5]; Total): 1

SMILES: CC(C)(C)NC(=O)[C@H]1CC[C@H]2[C@@H]3CC[C@H]4NC(=O)C=C[C@]4(C)[C@H]3CC[C@]12C [finasteride]
- Average weight of prostate glands [4]: 220.0 mg
- Weight of prostate glands versus solvent control group [4]: significantly lower
- Average weight of prostate glands ([1]; DHTP 20 μg hypodermic + drug oral daily (finasteride 0.5 mg, composition 5 mg), one week, solvent control 23.3±1.5 mg): 53.1 ± 1.4 mg and 53.1 mg
- Weight of prostate glands after inducement with DHTP [1]: not greatly affected
- Average weight of prostate glands ([1]; TP 10 μg hypodermic + drug oral daily (finasteride 0.5 mg, composition 5 mg), one week, solvent control 23.3±1.5 mg): 24.5 ± 1.6 mg and 24.5 mg
- Size of prostate glands enlarged by inducement with TP [1]: reduced to the normal size
